Key:
Caco-2 = test: MTT cell viability assay, Caco-2 colon cancer cells; format: cell-based; conditions: Homo sapiens
Description: (§1) Cell lines used in the study were grouped as follows: skin panel (melanomas: HTB140, derived from metastatic site: lymph node, ATCC Hs 294 T; malignant A375, ATCC CRL-1619; stage I primary WM793, RRID:CVCL 8787; skin keratinocytes HaCaT); prostate panel (prostate carcinomas: Du145, derived from metastatic site: brain, ATCC HTB-81; grade IV PC3, derived from metastatic site: bone, ATCC CRL-1435, LNCaP, derived from the metastatic site: lymph node, ATCC CRL-1740; prostate epithelial, PNT2, ECACC 95012613); gastrointestinal panel (colorectal adenocarcinomas: Caco2, ATCC HTB-37, HT29, ATCC HTB-38, DLD-1, ATCC CCL-221, HCT116, ATCC CCL-247, and colon epithelial cells CCD 841 CoN, ATCC CRL-1790; hepatocellular carcinoma HepG2, ATCC HB-8065); thyroid panel (follicular thyroid carcinoma FTC133, ECACC 9406090, undifferentiated thyroid carcinoma 8505C, ECACC 94090184, papillary thyroid carcinoma TPC-1, SCC147, normal thyroid follicular epithelial Nthy-ori 3–1, ECACC 90011609); and breast panel (ER-positive breast adenocarcinoma MCF7, ATCC HTB-22; ER-negative breast adenocarcinoma MDA-MB-231, ATCC HTB-26; breast epithelial MCF10A, ATCC CRL-10317). Cells were grown under standard conditions (37 °C, 5% CO2, relative humidity), and culture media (DMEM/F12 for PNT2, WM 793, HT29, PC3, FTC133, 8505 C, MDA-MB-231, TPC-1; DMEM Low Glucose for DU145; DMEM High Glucose for HTB140, A375, HaCaT; MEM with NEAA for Caco2 and MCF7; RPMI1640 with sodium pyruvate for LNCaP; DMEM/F12 with 20 ng/mL epidermal growth factor (EGF), 10 μg/mL insulin, 0.5 μg/mL hydrocortisone, 100 ng/mL cholera toxin) for MCF10A) supplemented with 10% fetal bovine serum (FBS) or 5% donor horse serum for MCF10A, and 1% antibiotics solution (10,000 U penicillin and 10 mg streptomycin/mL) […], as previously described. All cell lines, culture media, and supplements were from Sigma-Aldrich (Germany).
(§2) The cells were seeded in 96-well plates (1.5 × 10^4 cells/well). After 24 h, fresh medium was added, containing the tested compounds (0.5–100 μg/mL) and incubated for 24 or 48 h. Cell viability was determined by MTT assay, according to the manufacturer’s instructions, as described previously. Each experiment was performed in triplicate. The absorbance was measured at 570 nm using a Biotek Synergy microplate reader (BioTek Instruments Inc., Winooski, VT, USA). Cell viability was expressed as a percent of control (untreated cells). Doxorubicin was used as a reference drug.

A375 = test: MTT cell viability assay, A375 malignant melanoma cells; format: cell-based, human; conditions: for IC50: Homo sapiens, A-375; for Selectivity Index (SI): IC50 HaCaT / IC50 A375, 24 h
Description: as §1, §2
(§3) The selectivity index (SI) was calculated from the following formula:SI = IC50 of compound in a normal cell line/IC50 of compound in cancer cell line.IC50, half maximal inhibitory concentration, is a concentration required to kill 50% of the cells.

Du-145 = test: MTT cell viability assay, Du-145 prostate carcinoma cells; format: cell-based; conditions: Homo sapiens
Description: as §1, §2

HaCaT = test: MTT cell viability assay, HaCaT keratinocytes; format: cell-based; conditions: Homo sapiens
Description: as §1, §2

TPC-1 = test: MTT cell viability assay, TPC-1 papillary thyroid carcinoma cells; format: cell-based, human; conditions: for IC50: Homo sapiens, TPC1
Description: as §1, §2, §3

HT29 = test: MTT cell viability assay, HT29 colorectal adenocarcinoma cells; format: cell-based; conditions: Homo sapiens, HT-29
Description: as §1, §2

PNT2 = test: MTT cell viability assay, PNT2 normal prostate epithelial cells; format: cell-based; conditions: Homo sapiens
Description: as §1, §2

FTC133 = test: MTT cell viability assay, FTC133 follicular thyroid carcinoma cells; format: cell-based, human; conditions: for IC50: Homo sapiens, FTC-133
Description: as §1, §2, §3

8505C = test: MTT cell viability assay, 8505C undifferentiated thyroid carcinoma cells; format: cell-based, human; conditions: for IC50: Homo sapiens, 8505C; for Selectivity Index (SI): IC50 Nthy-ori 3-1 / IC50 8505C
Description: as §1, §2, §3

PC3 = test: MTT cell viability assay, PC3 prostate carcinoma cells; format: cell-based; conditions: Homo sapiens, PC-3
Description: as §1, §2

HepG2 = test: MTT cell viability assay, HepG2 hepatocellular carcinoma cells; format: cell-based; conditions: Homo sapiens
Description: as §1, §2

WM793 = test: MTT cell viability assay, WM793 primary melanoma cells; format: cell-based, human; conditions: for IC50: Homo sapiens
Description: as §1, §2, §3

Nthy-ori 3-1 = test: MTT cell viability assay, Nthy-ori 3-1 normal thyroid epithelial cells; format: cell-based; conditions: Homo sapiens
Description: as §1, §2

HCT116 = test: MTT cell viability assay, HCT116 colon cancer cells; format: cell-based; conditions: Homo sapiens, HCT-116
Description: as §1, §2

LNCaP = test: MTT cell viability assay, LNCaP prostate adenocarcinoma cells; format: cell-based; conditions: Homo sapiens
Description: as §1, §2

HTB-140 = test: MTT cell viability assay, HTB-140 metastatic melanoma cells; format: cell-based, human; conditions: for IC50: Homo sapiens; for Selectivity Index (SI): IC50 HaCaT / IC50 HTB-140, 24 h
Description: as §1, §2, §3

CCD 841 CoN = test: MTT cell viability assay, CCD 841 CoN normal colon epithelial cells; format: cell-based; conditions: Homo sapiens
Description: as §1, §2

DLD-1 = test: MTT cell viability assay, DLD-1 colon cancer cells; format: cell-based; conditions: Homo sapiens
Description: as §1, §2

MCF10A = test: MTT cell viability assay, MCF10A normal breast epithelial cells; format: cell-based; conditions: Homo sapiens, MCF-10A
Description: as §1, §2

MDA-MB-231 = test: MTT cell viability assay, MDA-MB-231 breast adenocarcinoma cells; format: cell-based; conditions: Homo sapiens
Description: as §1, §2

MCF7 = test: MTT cell viability assay, MCF7 breast adenocarcinoma cells; format: cell-based; conditions: Homo sapiens
Description: as §1, §2

[1] = IC50 Nthy-ori 3-1 / IC50 TPC-1, 24 h
[2] = IC50 Nthy-ori 3-1 / IC50 FTC133, 24 h

COc1cccc2c1C(=O)c1c(O)c3c(c(O)c1C2=O)C[C@@](O)(C(=O)CO)C[C@@H]3O[C@H]1C[C@H](N)[C@H](O)[C@H](C)O1 [DOX, Doxorubicin]
IC50 (Caco-2; Caco-2, 24 h): 3.4 µg/mL | IC50 (A375; A375, 24 h): 0.6 µg/mL | Selectivity Index (SI) (A375): 7.9 | IC50 (Du-145; DU-145, 24 h): 3.2 µg/mL | IC50 (HaCaT; 24 h): 4.7 µg/mL | IC50 (TPC-1; TPC-1, 24 h): 3.9 µg/mL | Selectivity Index (SI) (TPC-1; [1]): 7.0 | IC50 (HT29; HT29, 24 h): 1.5 µg/mL | IC50 (PNT2; 24 h): 1.4 µg/mL | IC50 (FTC133; FTC133, 24 h): 4 µg/mL | Selectivity Index (SI) (FTC133; [2]): 6.76 | IC50 (8505C; 24 h): > 40 µg/mL | IC50 (PC3; PC3, 24 h): > 50 µg/mL | IC50 (HepG2; HepG2, 24 h): 1 µg/mL | IC50 (WM793; WM793, 24 h): > 40 µg/mL | IC50 (Nthy-ori 3-1; 24 h): 27.2 µg/mL | IC50 (HCT116; HCT116, 24 h): 4 µg/mL | IC50 (LNCaP; 24 h): 1.8 µg/mL | IC50 (HTB-140; HTB-140, 24 h): 5.7 µg/mL | Selectivity Index (SI) (HTB-140): 0.8 | IC50 (CCD 841 CoN; 24 h): 1.7 µg/mL | IC50 (DLD-1; DLD-1, 24 h): 1.1 µg/mL

CC1(C)CCC2(C(=O)O)CCC3(C)C(=CCC4C5(C)CCC(OC6OC(C(=O)O)C(O)C(OC7OCC(O)C(O)C7O)C6O)C(C)(C)C5CCC43C)C2C1 [MIc, oleanolic acid-3-O-[β-D-xylopyranosyl(1→3)-β-D-glucuronopyranoside]]
IC50 (Caco-2; Caco-2, 24 h): 7 µg/mL | IC50 (Caco-2; Caco-2, 48 h): 4.3 µg/mL | IC50 (MCF10A; 24 h): > 100 µg/mL | IC50 (MCF10A; 48 h): > 100 µg/mL | IC50 (A375; A375, 24 h): 1.9 µg/mL | IC50 (A375; A375, 48 h): 0.9 µg/mL | Selectivity Index (SI) (A375): 2.7 | IC50 (MDA-MB-231; MDA-MB-231, 24 h): 52.2 µg/mL | IC50 (MDA-MB-231; MDA-MB-231, 48 h): 16.4 µg/mL | IC50 (Du-145; DU-145, 24 h): 5.4 µg/mL | IC50 (Du-145; DU-145, 48 h): 2.8 µg/mL | IC50 (HaCaT; 24 h): 5.3 µg/mL | IC50 (HaCaT; 48 h): 2.7 µg/mL | IC50 (TPC-1; TPC-1, 24 h): 39 µg/mL | IC50 (TPC-1; TPC-1, 48 h): 39 µg/mL | Selectivity Index (SI) (TPC-1; [1]): 2.2 | Selectivity Index (SI) (TPC-1; IC50 Nthy-ori 3-1 / IC50 TPC-1, 48 h): 1.6 | IC50 (HT29; HT29, 24 h): 4.2 µg/mL | IC50 (HT29; HT29, 48 h): 2.9 µg/mL | IC50 (PNT2; 24 h): > 100 µg/mL | IC50 (PNT2; 48 h): > 100 µg/mL | IC50 (FTC133; FTC133, 24 h): 3.5 µg/mL | IC50 (FTC133; FTC133, 48 h): 2.1 µg/mL | Selectivity Index (SI) (FTC133; [2]): 24.85 | Selectivity Index (SI) (FTC133; IC50 Nthy-ori 3-1 / IC50 FTC133, 48 h): 30.7 | IC50 (8505C; 24 h): 10.6 µg/mL | IC50 (8505C; 48 h): 5.2 µg/mL | Selectivity Index (SI) (8505C; 24 h): 8.2 | Selectivity Index (SI) (8505C; 48 h): 12.2 | IC50 (PC3; PC3, 24 h): 5.5 µg/mL | IC50 (PC3; PC3, 48 h): 3.4 µg/mL | IC50 (HepG2; HepG2, 24 h): 12.5 µg/mL | IC50 (HepG2; HepG2, 48 h): 9.5 µg/mL | IC50 (MCF7; MCF7, 24 h): > 100 µg/mL | IC50 (MCF7; MCF7, 48 h): 29.2 µg/mL | IC50 (WM793; WM793, 24 h): 2 µg/mL | IC50 (WM793; WM793, 48 h): 1 µg/mL | Selectivity Index (SI) (WM793; IC50 HaCaT / IC50 WM793, 24 h): 2.6 | Selectivity Index (SI) (WM793; IC50 HaCaT / IC50 WM793, 48 h): 2.7 | IC50 (Nthy-ori 3-1; 24 h): 86.2 µg/mL | IC50 (Nthy-ori 3-1; 48 h): 64.4 µg/mL | IC50 (HCT116; HCT116, 24 h): 9.4 µg/mL | IC50 (HCT116; HCT116, 48 h): 8.3 µg/mL | IC50 (LNCaP; 24 h): > 100 µg/mL | IC50 (LNCaP; 48 h): > 100 µg/mL | IC50 (HTB-140; HTB-140, 24 h): 7.8 µg/mL | IC50 (HTB-140; HTB-140, 48 h): 3 µg/mL | Selectivity Index (SI) (HTB-140): 0.7 | IC50 (CCD 841 CoN; 24 h): > 100 µg/mL | IC50 (CCD 841 CoN; 48 h): > 100 µg/mL | IC50 (DLD-1; DLD-1, 24 h): 16 µg/mL | IC50 (DLD-1; DLD-1, 48 h): 8 µg/mL

Reference: article PMC11357256, “Selectivity Screening and Structure–Cytotoxic Activity Observations of Selected Oleanolic Acid (OA)-Type Saponins from the Amaranthaceae Family on a Wiade Panel of Human Cancer Cell Lines” (Molecules, 2024)
